In patent publication US20110009628A1, “Compounds and Compositions for Modulating Lipid Levels and Methods of Preparing Same” (priority 2009, published 2011):
Counter-ions that a name gives are not always drawn. Like-named read-outs stand apart in the source and are kept apart here.

What was measured:
[1] = tested on: LDLR ligand uptake activity in HepG2 cells; test: DiI-LDL uptake in HepG2 cells (Example 6); format: cell-based, human; details: 20 hours, A, compound dose ≦10 μM; further: key: +: slightly increased fluorescent intensity over control; ++: modestly increased fluorescent intensity over control; +++: strongly increased fluorescent intensity over control
Procedure: HepG2 cells (2×10^5 cells/well) in 24-well culture plates were treated with various compounds at indicated concentrations for 20 hours. The fluorescent 1.1′-dioctadecyl-3,3,3′,3′-tetramethylindocarbocyanin perchlorate (DiI-LDL) (Biomedical Technologies, Stoughton, Mass.) at a concentration of 2 μg/mL was added to cells at the end of treatment. After 4 hours, the medium was removed, cells were washed with cold PBS, and were examined immediately under a fluorescent microscope (Nikon) at 200× amplification. The fluorescent intensity in compound-treated cells was compared to that in untreated control cells. […] In these experiments berberine chloride was used for comparison.

[2] = tested on: LDLR mRNA expression in HepG2 cells; test: LDLR mRNA expression in HepG2 cells, quantitative real-time RT-PCR (Example 7); format: cell-based, human; details: dose less than or equal to 10 μM, 24 hours
Procedure: In yet another experiment, HepG2 cells were treated with various compounds for 24 hours at the indicated doses. Total RNA was isolated and 2 μg was used to generate cDNA in a reaction containing random primers and M-MLV at 37° C. for 1 hour in a volume of 25 μL. Real-time PCR was performed on the cDNA using MCEP REALPLEX 2 SYSTEM (Eppendorf) and Universal MasterMix (Applied Biosystems). Human LDLR and GAPDH Pre-Developed TaqMan Assay Reagents (Applied Biosystems) were used to assess the levels of mRNA expressions in HepG2. The levels of LDLR mRNA were normalized to that of GAPDH. Each RNA samples was assayed in triplicate. The abundance of LDLR mRNA in untreated cells was defined as 1, and the amounts of LDLR mRNA from compound-treated cells were plotted relative to that value in FIG. 2B. The data shown are mean±s.d.
Activities of some compounds of Formulas I, II and EE on LDLR mRNA expression were determined. HepG2 cells were treated with new compounds individually at a dose less than or equal to 10 μM for 24 hours. […] In these experiments, berberine chloride was included for comparison.

[3] = tested on: LDLR mRNA expression in HepG2 cells; test: LDLR mRNA expression in HepG2 cells, quantitative real-time RT-PCR (Example 12); format: cell-based, human; details: Homo sapiens, 24 hours; for fold induction at 10 µM: read-out: Activity on LDLR mRNA at 10 uM (fold of control); for fold induction at 40 µM: read-out: Activity on LDLR mRNA at 40 uM (fold of control)
Procedure: (§1) The effects of compounds on the mRNA expressions of LDLR and PCSK9 were examined using quantitative real-time RT-PCR assays. HepG2 cells were treated with various compounds at 10 and 40 uM concentrations for 24 hours. Total RNA was isolated and […] was used to generate cDNA in a reaction containing random primers and M-MLV at 37° C. for 1 h in a volume of 25 μL. Real-time PCR was performed on the cDNA using MCEP REALPLEX 2 SYSTEM (Eppendorf) and Universal MasterMix (Applied Biosystems). Human LDLR, PCSK9, and GAPDH Pre-Developed TaqMan Assay Reagents (Applied Biosystems) were used to assess the levels of mRNA expressions in HepG2. The levels of LDLR and PCSK9 mRNA were normalized to that of GAPDH. Each RNA samples was assayed in duplicate. The fold activity was calculated by dividing mRNA abundance in compound treated cells with that of control.

[4] = tested on: PCSK9 mRNA expression in HepG2 cells; test: PCSK9 mRNA expression in HepG2 cells, quantitative real-time RT-PCR (Example 12); format: cell-based, human; details: 24 hours
Procedure: as §1

[5] = tested on: LDL ligand uptake activity in HepG2 cells; test: DiI-LDL uptake in HepG2 cells (Example 12); format: cell-based, human
Procedure: The combined beneficial effects of these novel compounds on elevation of LDLR mRNA levels likely through the mechanism of mRNA stabilization and their inhibitory activity towards PCSK9, the secreted protease that degrades LDLR protein, result in strong increases in LDL ligand uptake activity through increased receptor surface abundance. […] Briefly, HepG2 cells (2×10^5 cells/well) in 24-well culture plates were treated with various compounds at 10 and 40 uM concentrations for 20 hours. The fluorescent 1.1′-dioctadecyl-3,3,3′,3′-tetramethylindocarbocyanin perchlorate (DiI-LDL) (Biomedical Technologies, Stoughton, Mass.) at a concentration of 2 μg/ml was added to cells at the end of treatment. After 4 hours, the medium was removed; cells were washed with cold PBS, and were examined immediately under a fluorescent microscope (Nikon) at 200× amplification. The fluorescent intensity in compound-treated cells was compared to that in untreated control cells. […]

[6] = Pharmacokinetics of Compound 141 in male Wistar rats, intravenous and oral; format: in vivo; details: for MRT last: read-out: MRT(0-t); for MRT inf: read-out: MRT(0-∞)
Procedure: For intravenous administration, blood samples were collected via retro-orbital puncture into heparinized tubes at pre-dose and 0.083, 0.25, 0.5, 1, 2, 6, 8, and 24 hours (hr) post-dose.
For oral administration, blood samples were collected at following time points: 0, 0.167, 0.417, 0.75, 1, 2, 4, 6, 8, and 24 hr. After sample collection, plasma samples were stored at −20° C. until bioanalysis. Concentrations of 72(+) and 72(−) in plasma samples were determined using a high performance liquid chromatography/mass spectrometry (HPLC/MS/MS) method.
*F(%)=(Doseiv×AUCoral(0-t))/(Doseoral×AUCiv(0-t))×100%. […]
The pharmacokinetic profile and bioavailability of Compound 141 (phosphate salt of Compound 127) in male Wistar rats following single intravenous (iv) and oral administration (p.o.) were measured according to the procedures of Example 4 and are summarized in Table 11. The pharmacokinetic profile of Compound 162 in male Golden Syrian masters following oral administration (pox) is summarized in Table 12.

[7] = 40 uM, 20 hours (second symbol of cell)
[8] = 10 uM, 20 hours (first symbol of cell)
[9] = Wistar, rat, plasma, male rats, IV (2 mg/kg), mean
[10] = Wistar, rat, plasma, male rats, PO (10 mg/kg), mean

SMILES	Activity on DiI-LDL uptake [1]	Activity on LDLR mRNA expression (Fold of control) [2]	fold induction at 10 µM [3]	fold induction at 40 µM [3]	PCSK9 mRNA level at 10 uM (fold of control) [4]	Activity on PCSK9 mRNA reduction at 40 uM (fold of control) [4]	Activity in LDL uptake (relative to control) [5, 7]	Activity in LDL uptake (relative to control) [5, 8]	also measured
COc1ccc2c(c1O)CN1CCc3cc4c(cc3C1C2)OCO4 (stereo not shown) [Compound 34, 10-methoxy-5,6,7,8,13,13a-hexahydro-2H-1,3-dioxolano[4,5-g]isoquinolino[3,2-a]isoquinoline-9-ol]	++	1.76 ± 0.17 Fold of control							
COc1cc(NC(=O)Oc2c(OC)ccc3c2CN2CCc4cc5c(cc4C2C3)OCO5)cc(OC)c1 (stereo not shown) [Compound 45, N-(3,5-dimethoxyphenyl)(10-methoxy(5,6,7,8,13,13a-hexahydro-2H-1,3-dioxolano[4,5-g]isoquinolino[3,2-a]isoquinolin-9-yloxy))carboxamide]	++	2.09 ± 0.11 Fold of control							
COc1ccc2c(c1OC(=O)NC(C)C)CN1CCc3cc4c(cc3C1C2)OCO4 (stereo not shown) [Compound 41, (10-methoxy(5,6,7,8,13,13a-hexahydro-2H-1,3-dioxolano[4,5-g]isoquinolino[3,2-a]isoquinolin-9-yloxy))-N-(methylethyl)carboxamide]	++	1.60 ± 0.03 Fold of control							
COc1ccc2c(c1OC)CN1CCc3cc4c(cc3C1C2Cc1ccccc1)OCO4 (stereo not shown) [Compound 1, 9,10-dimethoxy-13-benzyl-5,6,7,8,13,13a-hexahydro-2H-1,3-dioxolano[4,5-g]isoquinolino[3,2-a]isoquinoline]	+	1.56 ± 0.86 Fold of control							
COc1cc2c(cc1OCCO)C1Cc3ccc(OC)c(OS(=O)(=O)c4ccccc4)c3CN1CC2 (stereo not shown) [Compound 143, 2-(2-hydroxyethoxy)-3,10-dimethoxy-5,6,7,8,13,13a-hexahydroisoquinolino[2,1-b]isoquinolin-9-yl benzenesulfonate]			1.87 ± 0.03	15 ± 1.68	1.09 ± 0.09 fold of control	0.48 ± 0.06 fold of control	++		
COc1cc2c(cc1C(=O)O)C1Cc3ccc(OC)c(OS(=O)(=O)c4ccccc4)c3CN1CC2 (stereo not shown) [Compound 135, 3,10-Dimethoxy-9-(phenylsulfonyloxy)-5,6,7,8,13,13a-hexahydro isoquinolino[3,2-a]isoquinoline-2-carboxylic acid]			1.72 ± 0.13	1.86	0.97 ± 0.04 fold of control	1.10 ± 0.14 fold of control	+		
COc1cc2c(cc1OC)C1Cc3ccc(OC)c(OS(=O)(=O)c4cccc(F)c4)c3CN1CC2 (stereo not shown) [Compound 127, 2,3,10-Trimethoxy-5,6,7,8,13,13a-hexahydroisoquinolino[2,1-b]isoquinolin-9-yl 3-fluorobenzenesulfonate]			1.8 ± 0.13	2.38 ± 0.38	0.197 ± 0.014 fold of control	0.192 ± 0.016 fold of control	+++/+++	+++/+++	PCSK9 mRNA expression, in words ([4]; 10 and 40 uM): strongly inhibits PCSK9 expression
COc1ccc2c(c1OS(=O)(=O)c1cccc(F)c1)CN1CCc3cc(C)ccc3C1C2 (stereo not shown) [Compound 130, 10-Methoxy-3-methyl-5,6,7,8,13,13a-hexahydroisoquinolino[2,1-b]isoquinolin-9-yl 3-fluorobenzenesulfonate]			4.29 ± 0.65	9 ± 1.49	2.11 ± 0.11 fold of control	0.84 ± 0.12 fold of control	+	++	
COc1cc2c(cc1OC)C1Cc3ccc(OC)c(OS(=O)(=O)c4cccc(F)c4)c3CN1CC2 (racemic) [Compound 141, 2,3,10-Trimethoxy-5,6,7,8,13,13a-hexahydroisoquinolino[2,1-b]isoquinolin-9-yl 3-fluorobenzenesulfonate phosphate Salt]									AUC(0-inf) [6, 9]: 1080 ng·h/mL; AUC(0-t) [6, 9]: 1070 ng·h/mL; Cmax [6, 9]: 1550 ng/mL; Tmax [6, 9]: 0.083 h; MRT last [6, 9]: 1.46 h; MRT inf [6, 9]: 1.62 h; Vd ([6]; Wistar, rat, plasma, male rats, IV (2 mg/kg), mean, read-out: Vz): 8.31 L/kg; AUC(0-inf) [6, 10]: 3380 ng·h/mL; AUC(0-t) [6, 10]: 3360 ng·h/mL; Cmax [6, 10]: 826 ng/mL; Tmax [6, 10]: 0.33 h; MRT last [6, 10]: 4.25 h; MRT inf [6, 10]: 4.44 h; pharmacokinetic properties and bioavailability, in words ([6]; male Wistar rats, iv and p.o.): excellent pharmacokinetic properties and good bioavailability; CLz ([6]; male rats, IV (2 mg/kg), mean): 31.2 mL/min/kg; t1/2z ([6]; male rats, IV (2 mg/kg), mean): 3.16 h; F* ([6]; male rats, PO (10 mg/kg) vs IV (2 mg/kg), mean): 62.75%; t1/2z ([6]; male rats, PO (10 mg/kg), mean): 3.62 h
COc1cc2c(cc1OCCO)CCN1Cc3c(ccc(OC)c3OS(=O)(=O)c3ccccc3)CC21 (stereo not shown) [Compound 138, 3-(2-Hydroxyethoxy)-2,10-dimethoxy-5,6,7,8,13,13a-hexahydroisoquinolino[2,1-b]isoquinolin-9-yl benzenesulfonate]			1.6 ± 0.29	2.45 ± 0.2	0.63 ± 0.14 fold of control	0.35 ± 0.02 fold of control	+++	+	
COc1cc2c(cc1OC)C1C(C)c3ccc(OC)c(OS(=O)(=O)c4ccccc4)c3CN1CC2 (stereo not shown) [Compound 139, 2,3,10-Trimethoxy-13-methyl-5,6,7,8,13,13a-hexahydro isoquinolino[2,1-b]isoquinolin-9-yl benzenesulfonate]			11.5 ± 1.29	3.02 ± 0.34	0.46 ± 0.04 fold of control	0.27 ± 0.02 fold of control	++/++	++/++	
